Results as given in EP1363949B1, “FUNCTIONAL FRAGMENT OF THE LEPTINE RECEPTOR” (Vlaams Interuniversitair Instituut voor Biotechnologie vzw., priority 2000, dated 2007).

Test system: FLAG-tagged SOCS3
Assay: phosphopeptide affinity chromatography with anti-FLAG Western blot
Type: binding, rat
Conditions: lysates of HEK293T cells transfected with pMET7-fSOCS3, biotinylated peptides on streptavidin-agarose
Text: Monoclonal anti-FLAG antibody M2 was obtained from Sigma. Mouse recombinant leptin was purchased from R&D Systems. Peptides were synthesized using standard Fmoc-amino-acid solid phase chemistry on an Applied Biosystems Model 431A peptide synthesizer. Biotin was esterified manually following similar procedures as on the synthesizer, and added to the reaction mixture. Incorporation of phosphotyrosine was realized by using a protected Fmoc-tyrosine-phosphobenzylester (Novabiochem). After purification, mass of the peptides was confirmed by mass spectrometry. Sequences of the peptides used were biotin-QRQPSVK(p)Y985ATLVSNDK and biotin-NHREKSVC(p)Y1077LGVTSVNR.
Approximately 10^6 HEK293T cells were lysed in 150 µl 2x loading buffer. After sonication, 30 µl was loaded on a 10% polyacrylamide gel. […] Blotting efficiency was checked using PonceauS staining (Sigma). […] Peptide concentrations were determined by a colorimetric assay using alkaline hydrolysis and a ninhydrine reagent. […]
The interaction sites of SOCS3 with the leptin receptor were confirmed using a biochemical approach. FLAG-tagged SOCS3 was expressed upon transient transfection of pMET7-fSOCS3 in HEK293T cells, and was analyzed for binding to (phospho)-tyrosine containing peptides matching the two motifs within the leptin receptor. […]

biotin-QRQPSVK(p)Y985ATLVSNDK [non-phosphorylated peptide]
binding of SOCS3: did not bind any SOCS3 protein
